{"source": "patent US20130085150A1", "about": "“ANALOGUES FOR THE TREATMENT OR PREVENTION OF FLAVIVIRUS INFECTIONS” (Vertex Pharmaceuticals Incorporated, priority 2010, published 2013)", "system": "HCV (Ib) RNA replication, Huh-ET replicon cells", "assay": "Cell-based luciferase reporter HCV (Ib) RNA replication assay", "conditions": "Hepatitis C virus, 96 h", "key": {"[1]": {"conditions": "HCV 1b replicon, luciferase, 4 days, read-out: EC50_ib"}}, "note": "Like-named read-outs stand apart in the source and are kept apart here.", "excerpt": "Cell-Based Luciferase Reporter HCV (Ib) RNA Replication Assay Cell Culture\nThis cell line allows measurement of HCV RNA replication and translation by measuring luciferase activity. […] The Huh-ET cell line has the same features as those mentioned for Huh-5.2 cell line, except that ET cells are more robust and contain an adaptative mutation in the HCV NS4B gene instead of NS5A. Both cell lines are maintained in cultures at a sub-confluent level (<85%) as the level of replicon RNA is highest in actively proliferating cells. The culture media used for cell passaging consist of DMEM (Gibco BRL Laboratories, Mississauga, ON, Canada) supplemented with 10% foetal bovine serum with 1% penicilin/streptomycin, 1% glutamine, 1% sodium pyruvate, 1% non-essential amino acids, and 180 μg/ml of G418 final concentration. Cells are incubated at 37° C., in an atmosphere of 5% CO2 and passaged twice a week to maintain sub-confluence.\nApproximately 3000 viable Huh-ET cells (100 μl) are plated per well in a white opaque 96-well microtiter plate. The cell culture media used for the assay is the same as described above except that it contains no G418 and no phenol red. After an incubation period of 3-4 hours at 37° C. in a 5% CO2 incubator, compounds (100 μl) are added at various concentrations. Cells are then further incubated for 4 days at 37° C. in a 5% CO2 incubator. Thereafter, the culture media is removed and cells are lysed by the addition of 95 μL of the luciferase buffer (luciferin substrate in buffered detergent). Cell lysates are incubated at room temperature and protected from direct light for at least 10 minutes. Plates are read for luciferase counts using a luminometer (Wallac MicroBeta Trilux, Perkin Elmer™, MA, USA).\nCurves are fitted to data points using nonlinear regression analysis, and IC50s are interpolated from the resulting curve using GraphPad Prism software, version 2.0 (GraphPad Software Inc., San Diego, Calif., USA)."}
{"smiles": "CCCCN(Cc1nc2cc(C#Cc3ccc4[nH]c(C(=O)NC5CC5)cc4c3)ccc2[nH]1)C(=O)OCc1ccccc1", "note": "[Compound 1]", "values": [{"measurement": "EC50", "setting": "[1]", "result": "0.005 to 5", "unit": "µM"}]}
{"smiles": "CC(C)(C)OC(=O)N1CCC[C@@H]1c1cn2cc(-c3ccc(-c4ccc5nc([C@H]6CCCN6C(=O)OC(C)(C)C)cn5c4)cc3)ccc2n1", "note": "[Compound 2]", "values": [{"measurement": "EC50", "setting": "[1]", "result": "0.005 to 5", "unit": "µM"}]}
{"smiles": "c1cc(-c2ccc3nc([C@H]4CCCN4)cn3c2)ccc1-c1ccc2nc([C@H]3CCCN3)cn2c1", "note": "[Compound 3]", "values": [{"measurement": "EC50", "setting": "[1]", "result": "0.005 to 5", "unit": "µM"}]}
{"smiles": "COC(=O)N[C@H](C(=O)N1C[C@@H](C)CC1c1nc2cc(-c3ccc(-c4ccc5nc(C6C[C@H](C)CN6C(=O)[C@@H](NC(=O)OC)C(C)C)oc5c4)cc3)ccc2[nH]1)C(C)C", "note": "(stereo partly shown) [Compound 47]", "values": [{"measurement": "EC50", "setting": "read-out: EC50_ib (uM)", "result": "< 0.005", "unit": "µM"}]}
